How the values were obtained:
EGFR del746-750 T790M = target: T1, EGFR del746-750 T790M (Homo sapiens, UniProt P00533, DEL746-750/T790M); assay: EGFR del746-750 T790M biochemical assay (Caliper mobility shift); conditions: 5 μM ATP; apparent Ki (Morrison fit) converted by Cheng-Prusoff, Km of ATP 2.1 μM; read-out: EGFR(T790M/d746-750) Ki
T1 construct: purchased Carna Biosciences 08-528
Summary of the method: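 Caliper mobility-shift read-out, with product electrophoretically resolved from substrate and measured. Reactions were quenched with 80 mM EDTA after 30 min at 22 °C.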

[1] = target: T2, phosphor-EGFR in H1975(L585R/T790M) mutant EGFR expressing cells (Homo sapiens, UniProt P00533, L858R/T790M); assay: H1975 pEGFR MSD cellular assay; type: cell-based; conditions: NCI-H1975 cells, serum starved, 1 hour compound incubation, pEGFR Tyr1068 MSD; read-out: HI975 pEGFR EC50
T2 construct: host or cells: NCI-H1975
Summary of the method: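 Phospho-EGFR read by MSD electrochemiluminescence: capture with anti-pEGFR antibody (overnight, 4° C), detection with SULFO-TAG anti-total EGFR (1 hour, room temperature). Before lysis, H1975 cells starved of serum overnight got compound for 1 hour at 37° C, 0.5% DMSO final. EC50 via four-parameter logistic regression of percent inhibition.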

EGFR T790M L858R = target: T3, EGFR T790M L858R (Homo sapiens, UniProt P00533, L858R/T790M); assay: EGFR T790M L858R biochemical assay (Caliper mobility shift); conditions: 5 μM ATP; apparent Ki (Morrison fit) converted by Cheng-Prusoff, Km of ATP 1.3 μM
T3 construct: purchased Life Technologies PV4879
Summary of the method: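 Caliper mobility-shift read-out, electrophoretic separation of substrate from product, after a 30-minute kinase reaction at 22 °C. EDTA at 80 mM terminates each reaction.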

[2] = system: H1975 (EGFR T790M/L858R) cell proliferation; assay: H1975 proliferation assay (Cell Titer-Glo); type: cell-based; conditions: Homo sapiens, NCI-H1975, 72 h, NCI-H1975 cells, 72 hour incubation, read-out: H1975 antiproliferative EC50
Procedure: H1975 Proliferation Assays
All cell culture reagents were purchased from Invitrogen/Gibco. Cells are cultured at 37° C. at 5% CO2 and split as recommended by ATCC.

T2 sequence (P00533 25-1210 T790M/L858R): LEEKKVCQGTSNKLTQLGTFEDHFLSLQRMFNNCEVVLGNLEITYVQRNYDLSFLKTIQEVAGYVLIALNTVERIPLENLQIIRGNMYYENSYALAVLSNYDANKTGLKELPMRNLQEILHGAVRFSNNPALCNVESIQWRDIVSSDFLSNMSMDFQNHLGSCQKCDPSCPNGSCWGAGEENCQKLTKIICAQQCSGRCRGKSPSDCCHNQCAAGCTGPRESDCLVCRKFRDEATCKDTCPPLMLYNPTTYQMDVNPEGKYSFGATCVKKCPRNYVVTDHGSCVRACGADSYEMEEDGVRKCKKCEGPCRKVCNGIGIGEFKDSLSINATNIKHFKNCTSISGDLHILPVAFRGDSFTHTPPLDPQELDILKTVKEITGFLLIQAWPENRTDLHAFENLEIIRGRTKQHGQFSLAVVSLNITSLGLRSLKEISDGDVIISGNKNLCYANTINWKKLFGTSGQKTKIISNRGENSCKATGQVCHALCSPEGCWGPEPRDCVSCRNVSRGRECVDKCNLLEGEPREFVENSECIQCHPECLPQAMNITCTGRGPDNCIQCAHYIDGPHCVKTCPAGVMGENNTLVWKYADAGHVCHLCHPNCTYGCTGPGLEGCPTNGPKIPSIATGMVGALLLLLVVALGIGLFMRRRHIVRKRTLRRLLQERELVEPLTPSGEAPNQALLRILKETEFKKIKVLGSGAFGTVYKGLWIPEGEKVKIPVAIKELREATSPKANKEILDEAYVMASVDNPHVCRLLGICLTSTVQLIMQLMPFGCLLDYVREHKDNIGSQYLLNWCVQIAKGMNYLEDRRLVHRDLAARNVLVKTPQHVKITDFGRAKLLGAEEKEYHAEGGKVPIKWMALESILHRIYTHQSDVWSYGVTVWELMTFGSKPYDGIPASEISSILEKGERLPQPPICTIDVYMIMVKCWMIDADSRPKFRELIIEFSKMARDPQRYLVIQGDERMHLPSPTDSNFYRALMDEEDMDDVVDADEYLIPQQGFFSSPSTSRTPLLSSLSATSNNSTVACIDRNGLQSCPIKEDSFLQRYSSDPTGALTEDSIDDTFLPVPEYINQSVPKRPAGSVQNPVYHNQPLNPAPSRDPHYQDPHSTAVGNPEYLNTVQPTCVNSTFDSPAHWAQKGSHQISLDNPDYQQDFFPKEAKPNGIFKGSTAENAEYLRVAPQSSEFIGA
T3 sequence (P00533 25-1210 T790M/L858R): as above
T1 sequence (P00533 with tags, fused parts or gaps DEL746-750/T790M limits assumed): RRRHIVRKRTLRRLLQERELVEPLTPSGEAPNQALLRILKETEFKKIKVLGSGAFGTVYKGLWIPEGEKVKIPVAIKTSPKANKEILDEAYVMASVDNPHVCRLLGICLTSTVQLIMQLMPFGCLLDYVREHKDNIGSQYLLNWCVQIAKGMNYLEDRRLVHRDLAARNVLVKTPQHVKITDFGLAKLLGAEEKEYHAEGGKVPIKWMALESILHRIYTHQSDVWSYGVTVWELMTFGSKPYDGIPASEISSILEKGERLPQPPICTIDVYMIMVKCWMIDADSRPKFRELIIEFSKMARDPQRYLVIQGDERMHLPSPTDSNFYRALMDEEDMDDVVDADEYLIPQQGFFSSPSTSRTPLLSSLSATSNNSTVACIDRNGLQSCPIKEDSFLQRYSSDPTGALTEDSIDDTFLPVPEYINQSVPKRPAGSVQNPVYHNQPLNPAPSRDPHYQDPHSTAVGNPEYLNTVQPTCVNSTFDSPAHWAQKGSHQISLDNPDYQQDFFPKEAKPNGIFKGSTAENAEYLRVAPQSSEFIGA

Structure (SMILES)	Ki (EGFR del746-750 T790M)	EC50 [1]	Ki (EGFR T790M L858R)	EC50 [2]
CC(C)n1nc(N2CCOC2=O)c2cnc(Nc3ccnc(-c4cnn(S(=O)(=O)C5CC5)c4)n3)cc21 [Example 72, 3-(6-(2-(1-(Cyclopropylsulfonyl)-1H-pyrazol-4-yl)pyrimidin-4-ylamino)-1-isopropyl-1H-pyrazolo[4,3-c]pyridin-3-yl)oxazolidin-2-one]	0.5 nM	28.1 nM	0.7 nM	206 nM
CC(C)n1nc(N2CC[C@@H](O)C2)c2cnc(Nc3ccnc(-c4cnn(S(=O)(=O)C5CC5)c4)n3)cc21 [Example 114, (R)-1-(6-(2-(1-(Cyclopropylsulfonyl)-1H-pyrazol-4-yl)pyrimidin-4-ylamino)-1-isopropyl-1H-pyrazolo[4,3-c]pyridin-3-yl)pyrrolidin-3-ol]	0.7 nM	5.6 nM	0.8 nM	190 nM
CC(C)n1nc(N2CC(F)(F)C2)c2cnc(Nc3ccnc(-c4cnn(S(=O)(=O)C5CC5)c4)n3)cc21 [Example 154, N-(2-(1-(Cyclopropylsulfonyl)-1H-pyrazol-4-yl)pyrimidin-4-yl)-3-(3,3-difluoroazetidin-1-yl)-1-isopropyl-1H-pyrazolo[4,3-c]pyridin-6-amine]	2.9 nM	82 nM	2.8 nM	312 nM
CC(C)n1nc(N2CC3(CN(CC(F)(F)F)C3)C2)c2cnc(Nc3ccnc(-c4cnn(S(=O)(=O)C5CC5)c4)n3)cc21 [Example 126, N-(2-(1-(Cyclopropylsulfonyl)-1H-pyrazol-4-yl)pyrimidin-4-yl)-1-isopropyl-3-(6-(2,2,2-trifluoroethyl)-2,6-diazaspiro[3.3]heptan-2-yl)-1H-pyrazolo[4,3-c]pyridin-6-amine]	4.6 nM	80.1 nM	5.3 nM	1140 nM
CCC(C)n1nc(N2CC3(COC3)C2)c2cnc(Nc3ccnc(N4C[C@@H](F)[C@@H](O)C(C)(C)C4)n3)cc21 (mixture of isomers) [Example 147, (4SR,5RS)-1-(4-((1-(sec-Butyl)-3-(2-oxa-6-azaspiro[3.3]heptan-6-yl)-1H-pyrazolo[4,3-c]pyridin-6-yl)amino)pyrimidin-2-yl)-5-fluoro-3,3-dimethylpiperidin-4-ol]	3.9 nM	15.8 nM	2.4 nM	227 nM
CC(O)C1CN(c2nn(C(C)C)c3cc(Nc4ccnc(-c5cnn(S(=O)(=O)C6CC6)c5)n4)ncc23)C1 (stereo not shown) [Example 113, 1-(1-(6-(2-(1-(Cyclopropylsulfonyl)-1H-pyrazol-4-yl)pyrimidin-4-ylamino)-1-isopropyl-1H-pyrazolo[4,3-c]pyridin-3-yl)azetidin-3-yl)ethanol]	0.5 nM	27.6 nM	0.6 nM	266 nM
CC(C)n1nc(N2CCC(O)C2)c2cnc(Nc3ccnc(N4CC[C@@H](O)[C@@H](F)C4)n3)cc21 (single isomer, unassigned) [Example 105, (3S*,4R*)-3-fluoro-1-(4-((3-((R)-3-hydroxypyrrolidin-1-yl)-1-isopropyl-1H-pyrazolo[4,3-c]pyridin-6-yl)amino)pyrimidin-2-yl)piperidin-4-ol]	2.7 nM	129 nM	1.2 nM	213 nM
CC(C)n1nc(NC(=O)C(C)(C)O)c2cnc(Nc3ccnc(-c4cnn(S(=O)(=O)C5CC5)c4)n3)cc21 [Example 116, N-(6-(2-(1-(Cyclopropylsulfonyl)-1H-pyrazol-4-yl)pyrimidin-4-ylamino)-1-isopropyl-1H-pyrazolo[4,3-c]pyridin-3-yl)-2-hydroxy-2-methylpropanamide]	2 nM	629 nM	2.6 nM	2080 nM
CC(C)n1nc(NCCC2OCC(N)CO2)c2cnc(Nc3ccnc(N4CCC(C)(O)CC4)n3)cc21 (stereo not shown) [Example 139, 1-(4-(3-(2-(5-Amino-1,3-dioxan-2-yl)ethylamino)-1-isopropyl-1H-pyrazol[4,3-c]pyridin-6-ylamino)pyrimidin-2-yl)-4-methylpiperidin-4-ol]	18.3 nM	6070 nM	7.1 nM	> 10000 nM
CC(C)n1nc(N2CC(N3CCOCC3)C2)c2cnc(Nc3ccnc(-c4cnn(S(=O)(=O)C5CC5)c4)n3)cc21 [Example 117, N-(2-(1-(Cyclopropylsulfonyl)-1H-pyrazol-4-yl)pyrimidin-4-yl)-1-isopropyl-3-(3-morpholinoazetidin-1-yl)-1H-pyrazolo[4,3-c]pyridin-6-amine]	1.1 nM	54.9 nM	1.3 nM	432 nM
COC1CCN(c2nccc(Nc3cc4c(cn3)c(N3CC5(COC5)C3)nn4C(C)C)n2)CC1 [Example 2, 1-Isopropyl-N-(2-(4-methoxypiperdin-1-yl)pyrimidin-4-yl)-3-(2-oxa-6-azaspiro[3.3]heptan-6-yl)-1H-pyrazolo[4,3-c]pyridine-6-amine]	9.7 nM	81.7 nM	2.1 nM	388 nM
CC(C)n1nc(N2CC3(COC3)C2)c2cnc(Nc3ccnc(N4CCC(O)C(F)C4)n3)cc21 (racemic) [Example 21, (±)-cis-3-Fluoro-1-{4-[1-isopropyl-3-(2-oxa-6-azaspiro[3.3]hept-6-yl)-1H-pyrazolo[4,3-c]pyridin-6-ylamino]-pyrimidin-2-yl}piperidin-4-ol]	3 nM	36.1 nM	1.2 nM	390 nM
CC(C)n1nc(NCCO)c2cnc(Nc3ccnc(-c4cnn(S(=O)(=O)C5CC5)c4)n3)cc21 [Example 6, 2-((6-((2-(1-(Cyclopropylsulfonyl)-1H-pyrazol-4-yl)pyrimidin-4-yl)amino)-1-isopropyl-1H-pyrazolo[4,3-c]pyridin-3-yl)amino)ethanol]	1.2 nM	73.8 nM	0.9 nM	877 nM

Second part, the compound after the results:

Ki (EGFR del746-750 T790M)	EC50 [1]	Ki (EGFR T790M L858R)	EC50 [2]	Structure (SMILES)
1.1 nM	12.5 nM	0.9 nM	263 nM	CCC(C)n1nc(N2CC[C@@H](O)C2)c2cnc(Nc3ccnc(N4CC[C@H](O)[C@H](F)C4)n3)cc21 (stereo partly drawn) [Example 196, (3R,4S)-1-(4-((1-(sec-Butyl)-3-((R)-3-hydroxypyrrolidin-1-yl)-1H-pyrazolo[4,3-c]pyridin-6-yl)amino)pyrimidin-2-yl)-3-fluoropiperidin-4-ol]
12.1 nM	3980 nM	3.3 nM	> 10000 nM	CCC(C)n1nc(N2C[C@@H](CO)NC2=O)c2cnc(Nc3ccnc(N4CCC(C)(O)CC4)n3)cc21 (mixture of isomers) [Example 176, (4S)-1-(1-sec-Butyl-6-(2-(4-hydroxy-4-methylpiperidin-1-yl)pyrimidin-4-ylamino)-1H-pyrazolo[4,3-c]pyridin-3-yl)-4-(hydroxymethyl)imidazolidin-2-one]
0.9 nM	26.5 nM	0.9 nM	344 nM	CC(C)n1nc(N2CC(C(=O)N3CCOCC3)C2)c2cnc(Nc3ccnc(-c4cnn(S(=O)(=O)C5CC5)c4)n3)cc21 [Example 163, (1-(6-(2-(1-(Cyclopropylsulfonyl)-1H-pyrazol-4-yl)pyrimidin-4-ylamino)-1-isopropyl-1H-pyrazolo[4,3-c]pyridin-3-yl)azetidin-3-yl)(morpholino)methanone]
8.9 nM	298 nM	1.9 nM	1110 nM	CCC(C)n1nc(N2CC[C@@H](O)C2)c2cnc(Nc3ccnc(N4CCC(S(C)(=O)=O)CC4)n3)cc21 (stereo partly drawn) [Example 206, (3R)-1-(1-(sec-Butyl)-6-((2-(4-(methylsulfonyl)piperidin-1-yl)pyrimidin-4-yl)amino)-1H-pyrazolo[4,3-c]pyridin-3-yl)pyrrolidin-3-ol]
5.6 nM	129 nM	1.8 nM	334 nM	CCC(C)n1nc(N2CC(C(C)(C)O)C2)c2cnc(Nc3ccnc(N4CC[C@@H](O)[C@@H](F)C4)n3)cc21 (single isomer, unassigned) [Example 193, (3S,4R)-1-(4-((1-((R*)-sec-Butyl)-3-(3-(2-hydroxypropan-2-yl)azetidin-1-yl)-1H-pyrazolo[4,3-c]pyridin-6-yl)amino)pyrimidin-2-yl)-3-fluoropiperidin-4-ol]
2.6 nM	75.4 nM	1.2 nM	300 nM	CCC(C)n1nc(N2CCCC2=O)c2cnc(Nc3ccnc(N4CC[C@@H](O)[C@@H](F)C4)n3)cc21 (stereo partly drawn) [Example 200, 1-(1-(sec-Butyl)-6-((2-((3S,4R)-3-fluoro-4-hydroxypiperidin-1-yl)pyrimidin-4-yl)amino)-1H-pyrazolo[4,3-c]pyridin-3-yl)pyrrolidin-2-one]

— patent US9951064B2, “Azaindazole compounds as inhibitors of T790M containing EGFR mutants” (Genentech, Inc., priority 2013, dated 2018)
